Values of other authors as cited in patent US11324962B2, “Magnetic field enhancement of chemotherapy for tumor treatment” (priority 2018, dated 2022).

Conditions: in vivo

O=C1[O][Pt]2([NH][C@@H]3CCCC[C@H]3[NH]2)[O]C1=O [oxaliplatin]
biological half-life: 25 minutes
